The subject of data set [1] is Penicillium digitatum. In words: Rotting control (RRI) in oranges of Valencia variety inoculated with P. digitatum. It counts as in vivo. As to conditions: 7 days at 22° C. and 85% RH. As for the experimental part: Without previous washing or treatment, fruits from the same batch, receive from field, were randomized in groups of 25. Each treatment was performed with 4 replicates of 25 fruits, which were artificially inoculated on one side by pricking with a punch (2 mm length, 1 mm diameter) previously impregnated in a solution of Penicillium digitatum or Penicillium italicum spores of 5*10^5 cfu/ml and allowed to stand for 17 hours before treatment.
(§1) For the LD treatments, IMZ LD C18 and IMZ LD C12, suspensions of (IMZ)SG-C18-OH and (IMZ)SG-C12-OH at 6 g/l in tap water buffered with 10 mM of sodium etidronate at pH=7.5 was prepared from the concentrated suspensions described in examples 7 and 8. […] As a control, a treatment of bathing in tap water was carried out (CONTROL).
The 25 fruits of each replicate were bathed using a mesh by immersion for 30 seconds in 10 l of treatment. […] After this time, the number of rotten fruits were counted for each replicate. The effectiveness of the treatments is expressed as % rotting and also as rotting reduction index (RRI, %), which is calculated as: 100×(No. of rotten control fruits−No. of rotten products in the treatment)/No. of rotten fruits in the control.
This experiment was carried out following the same procedure as for examples 9-14. The free pyrimethanil residues in water and virtual were analyzed according to examples 18 and 19. […]

The nature of data set [2]: Analysis of free pyrimethanil in treatment water by HPLC. The note with it: example 17. It is filed as physicochemical. As for the experimental part: (§2) The reduction of free fungicide in water is calculated as: 100×(concentration of free fungicide in reference treatment water−concentration of free fungicide in LD treatment water)/concentration of free fungicide in reference treatment water. Likewise, the reduction of fungicide residues in fruits is calculated as: 100×(fungicide residues in fruit in reference treatment−fungicide residues in fruit in LD treatment)/fungicide residues in fruit in reference treatment.
This experiment was carried out following the same procedure as for examples 9-14. The free pyrimethanil residues in water and virtual were analyzed according to examples 18 and 19. For the reference conventional treatment (PIRREF) a solution of pyrimethanil at 525 mg/l in tap water was prepared from a commercial solution at 40% (PENBOTEC). For the LD treatment (PIR LD C18) a suspension of (PIR)SG-C18-OH of 14 g/l in tap water buffered with sodium etidronate 10 mM at pH=7.5 was prepared from the concentrated suspension described in example 16. A 14 g/l suspension correspond to a virtual pyrimethanil concentration contained within the microparticles of 525 mg/l. As a control, a treatment of bathing in tap water was carried out (CONTROL).
(§3) 1 ml of test solution of loaded microparticles was filtered through a nylon 0.45 micron syringe filter and later analyzed by HPLC (Agilent 1100 Series).
(§4) Chromatographic Conditions: […]

Data set [3] in a line: Analysis of free imazalil in treatment water by HPLC. As to conditions: for [IMZ] free in water: treatment water at the moment of treatment; for Reduction of [IMZ] in water: versus reference treatment water. It counts as physicochemical. How it is done:
as §3
Chromatographic Conditions:
60% Phosphate buffer pH=2.5, 2 mM
as §1, §2

Data set [4] in a line: Analysis of free thiabenzadol in treatment water by HPLC. It is filed as physicochemical. As to conditions: example 22. As for the experimental part: as §2
This experiment was carried out following the same procedure as for examples 9-14. The free thiabenzadol residues in water and virtual were analyzed according to examples 23 and 24. For the reference conventional treatment (TBZ REF) a solution of thiabenzadol at 1200 mg/l in tap water was prepared from a commercial solution at 40% (TEXTAR). For the LD treatment (TBZ LD C18) a suspension of (TBZ)SG-C18-OH of 16 g/l in tap water buffered with sodium etidronate 10 mM at pH=7.5 was prepared from the concentrated suspension described in example 21. A 16 g/l suspension correspond to a virtual thiabenzadol concentration contained within the microparticles of 1200 mg/l. As a control, a treatment of bathing in tap water was carried out (CONTROL).
as §3, §4

Setting [5] is: treatment water at the moment of treatment.
Where [6] appears, read: versus reference treatment water.

As to `Cc1cc(C)nc(Nc2ccccc2)n1` [PIR REF, pyrimethanil], the “rotting reduction index (RRI)” value in data set [1] (example 17, FIG. 16, 14 g/l (PIR)SG-C18-OH in etidronic buffer pH=7.5 or pyrimethanil 525 mg/l) is reported as roughly 90%. For the same compound, the “[PIR] free in water” value in data set [2] (setting [5]) amounted to 525 mg/L. For the same compound, the “Reduction of [PIR] in water” value in data set [2] (setting [6]) was determined as 0.0%.
On to imazalil sulfate [IMZ REF], for which the “[IMZ] free in water” value in data set [3] (example 9), in data set [3] (example 10), in data set [3] (example 11), in data set [3] (example 12), in data set [3] (example 13) and in data set [3] (example 14) was 450 mg/L each time. In addition, the “Reduction of [IMZ] in water” value in data set [3] (example 9), in data set [3] (example 10), in data set [3] (example 11), in data set [3] (example 12), in data set [3] (example 13) and in data set [3] (example 14) was 0.0% in each case.
Turning to `c1ccc2[nH]c(-c3cscn3)nc2c1` [TBZ REF, thiabenzadol], the “rotting reduction index (RRI)” value in data set [1] (example 22, FIG. 18, 16 g/l (TBZ)SG-C18-OH in etidronic buffer pH=7.5 or thiabenzadol 1200 mg/l) is given as 100%. The “[TBZ] free in water” value in data set [4] (setting [5]) was found to be 1200 mg/L. Further, the “Reduction of [TBZ] in water” value in data set [4] (setting [6]) was 0.0%.

These data come from patent US10736316B2, “Silica particles functionalized and loaded with fungicidal agents, their manufacture and their use as systems of targeted and controlled release of fungicides” (priority 2015, dated 2020).
